From ChEMBL document CHEMBL3526058, “Investigating the enteroenteric recirculation of apixaban, a factor Xa inhibitor: administration of activated charcoal to bile duct-cannulated rats and dogs receiving an intravenous dose and use of drug transporter knockout rats” (Drug Metab Dispos, 2013)

Experiments:
[1] = Apparent oral clearance in BCRP-knockout Sprague-Dawley rat at 4 mg/kg, po; type: ADME, organism-based; set-up: dose 4 mg/kg, route oral; details: in vivo
[2] = Oral bioavailability in BCRP-knockout Sprague-Dawley rat at 4 mg/kg; type: ADME, organism-based; details: in vivo
[3] = Apparent oral clearance in beagle dog at 5 mg/kg, po followed by activated charcoal administration 1 hr post compound dosing; type: ADME, organism-based, Canis lupus familiaris; set-up: dose 5 mg/kg, route oral; details: in vivo
[4] = Half life in beagle dog at 5 mg/kg, po followed by activated charcoal administration 0.25 hrs post compound dosing; type: ADME, organism-based, Canis lupus familiaris; set-up: dose 5 mg/kg, route oral; details: in vivo
[5] = Cmax in wild-type Sprague-Dawley rat at 4 mg/kg, po; type: ADME, organism-based; set-up: dose 4 mg/kg, route oral; details: in vivo
[6] = Apparent oral clearance in wild-type Sprague-Dawley rat at 4 mg/kg, po; type: ADME, organism-based; set-up: dose 4 mg/kg, route oral; details: in vivo
[7] = Cmax in beagle dog at 5 mg/kg, po followed by activated charcoal administration 1 hr post compound dosing; type: ADME, organism-based, Canis lupus familiaris; set-up: dose 5 mg/kg, route oral; details: in vivo
[8] = AUC (0 to infinity) in BCRP-knockout Sprague-Dawley rat at 4 mg/kg, po; type: ADME, organism-based; set-up: time infinity, dose 4 mg/kg, route oral; details: plasma
[9] = Half life in P-gp-knockout Sprague-Dawley rat at 4 mg/kg, po; type: ADME, organism-based; set-up: dose 4 mg/kg, route oral; details: in vivo
[10] = Oral steady-state volume of distribution in beagle dog at 5 mg/kg followed by activated charcoal administration 0.25 hrs post compound dosing; type: ADME, organism-based, Canis lupus familiaris; set-up: dose 5 mg/kg; details: in vivo, read-out: Vss/F
[11] = Mean residence time in BCRP-knockout Sprague-Dawley rat at 4 mg/kg, po; type: ADME, organism-based; set-up: dose 4 mg/kg, route oral; details: in vivo
[12] = AUC (0 to infinity) in Sprague-Dawley rat at 4 mg/kg, po administered 1 hr post GF-120918 treatment; type: ADME, organism-based; set-up: time infinity, dose 4 mg/kg, route oral; details: plasma, with GF-120918
[13] = Cmax in Sprague-Dawley rat at 4 mg/kg, po administered 1 hr post GF-120918 treatment; type: ADME, organism-based; set-up: dose 4 mg/kg, route oral; details: in vivo, with GF-120918
[14] = Mean residence time in Sprague-Dawley rat at 4 mg/kg, po administered 1 hr post GF-120918 treatment; type: ADME, organism-based; set-up: dose 4 mg/kg, route oral; details: in vivo, with GF-120918
[15] = Plasma concentration in beagle dog at 5 mg/kg, po followed by activated charcoal administration 0.25 hrs post compound dosing measured at 8 hrs; type: ADME, organism-based, Canis lupus familiaris; set-up: dose 5 mg/kg, route oral
[16] = Oral bioavailability in Sprague-Dawley rat at 4 mg/kg administered 1 hr post GF-120918 treatment; type: ADME, organism-based; details: in vivo, with GF-120918
[17] = AUC (0 to 24 hrs) in beagle dog at 5 mg/kg, po; type: ADME, organism-based, Canis lupus familiaris; set-up: time < 24 hr, dose 5 mg/kg, route oral; details: plasma
[18] = AUC (0 to 24 hrs) in beagle dog at 5 mg/kg, po followed by activated charcoal administration 3 hrs post compound dosing; type: ADME, organism-based, Canis lupus familiaris; set-up: time < 24 hr, dose 5 mg/kg, route oral; details: plasma
[19] = Oral steady-state volume of distribution in Sprague-Dawley rat at 4 mg/kg administered 1 hr post GF-120918 treatment; type: ADME, organism-based; set-up: dose 4 mg/kg; details: in vivo, with GF-120918, read-out: Vss/F
Homo sapiens = assay: Volume of distribution in human administered bid orally; type: ADME, organism-based; details: in vivo, po
[20] = Mean residence time in beagle dog at 5 mg/kg, po followed by activated charcoal administration 3 hrs post compound dosing; type: ADME, organism-based, Canis lupus familiaris; set-up: dose 5 mg/kg, route oral; details: in vivo
[21] = Half life in wild-type Sprague-Dawley rat at 4 mg/kg, po; type: ADME, organism-based; set-up: dose 4 mg/kg, route oral; details: in vivo
[22] = Oral steady-state volume of distribution in BCRP-knockout Sprague-Dawley rat at 4 mg/kg; type: ADME, organism-based; set-up: dose 4 mg/kg; details: in vivo, read-out: Vss/F
[23] = Mean residence time in beagle dog at 5 mg/kg, po; type: ADME, organism-based, Canis lupus familiaris; set-up: dose 5 mg/kg, route oral; details: in vivo
[24] = Oral steady-state volume of distribution in wild-type Sprague-Dawley rat at 4 mg/kg; type: ADME, organism-based; set-up: dose 4 mg/kg; details: in vivo, read-out: Vss/F
[25] = Mean residence time in beagle dog at 5 mg/kg, po followed by activated charcoal administration 1 hr post compound dosing; type: ADME, organism-based, Canis lupus familiaris; set-up: dose 5 mg/kg, route oral; details: in vivo
[26] = Apparent oral clearance in P-gp-knockout Sprague-Dawley rat at 4 mg/kg, po; type: ADME, organism-based; set-up: dose 4 mg/kg, route oral; details: in vivo
[27] = Oral bioavailability in P-gp-knockout Sprague-Dawley rat at 4 mg/kg; type: ADME, organism-based; details: in vivo
[28] = Oral bioavailability in beagle dog at 5 mg/kg followed by activated charcoal administration 3 hrs post compound dosing; type: ADME, organism-based, Canis lupus familiaris; details: in vivo
[29] = Cmax in beagle dog at 5 mg/kg, po followed by activated charcoal administration 3 hrs post compound dosing; type: ADME, organism-based, Canis lupus familiaris; set-up: dose 5 mg/kg, route oral; details: in vivo
[30] = AUC (0 to 24 hrs) in beagle dog at 5 mg/kg, po followed by activated charcoal administration 1 hr post compound dosing; type: ADME, organism-based, Canis lupus familiaris; set-up: time < 24 hr, dose 5 mg/kg, route oral; details: plasma
[31] = Oral bioavailability in wild-type Sprague-Dawley rat at 4 mg/kg; type: ADME, organism-based; details: in vivo

CL/F [1]: 6.67 mL/min/kg
bioavailability [2]: 122%
CL/F [3]: 1.28 mL/min/kg
half-life [4]: 4.2 h
Cmax [5]: 420 ng/mL
CL/F [6]: 25 mL/min/kg
Cmax [7]: 8990 ng/mL
AUC(0-inf) [8]: 5710 ng·h/mL
half-life [9]: 3.8 h
Vd/F [10]: 0.5 L/kg
MRT [11]: 2.9 h
AUC(0-inf) [12]: 6570 ng·h/mL
Cmax [13]: 2870 ng/mL
MRT [14]: 2.1 h
concentration at 8 h [15]: 2820 ng/mL
bioavailability [16]: 140%
AUC(0-t) at 24 h [17]: 78600 ng·h/mL
AUC(0-t) at 24 h [18]: 49200 ng·h/mL
Vd/F [19]: 0.7 L/kg
Vd (Homo sapiens): 0.3 L/kg
MRT [20]: 5.3 h
half-life [21]: 3.3 h
Vd/F [22]: 1.1 L/kg
MRT [23]: 8.5 h
Vd/F [24]: 5.8 L/kg
MRT [25]: 5.9 h
CL/F [26]: 10 mL/min/kg
bioavailability [27]: 71%
bioavailability [28]: 77%
Cmax [29]: 8070 ng/mL
AUC(0-t) at 24 h [30]: 63900 ng·h/mL
bioavailability [31]: 49%
Compound: COc1ccc(-n2nc(C(N)=O)c3c2C(=O)N(c2ccc(N4CCCCC4=O)cc2)CC3)cc1
